The source made the active and inactive calls. No cut-off for these calls is given here.
Tests used:
[1] = species: Capra hircus; assay: Binding affinity to goat brain tubulin assessed as tryptophan fluorescence change incubated for 45 mins by tryptophan quenching assay; conditions: dose 50-200 µM
[2] = tested on: MCF7; assay: Antiproliferative activity against human MCF7 cells assessed as inhibition of cell proliferation incubated for 72 hrs by SRB assay; assay type: functional, cell-based; conditions: MCF7, 72 h
[3] = tested on: MDA-MB-231; assay: Antiproliferative activity against human MDA-MB-231 cells assessed as inhibition of cell proliferation incubated for 72 hrs by SRB assay; assay type: functional, cell-based; conditions: MDA-MB-231, 72 h
[4] = tested on: MDA-MB-231; assay: Inhibition of colony formation in human MDA-MB-231 cells incubated for 24 hrs by crystal violet staining based colony formation assay; assay type: functional, cell-based; conditions: dose 1-20 µM
[5] = tested on: MDA-MB-231; assay: Induction of apoptosis in human MDA-MB-231 cells assessed as increase in fragmented nuclei at 6.65 uM (IC50) measured after 72 hrs by fluorescence microscopic analysis; assay type: functional, cell-based
[6] = tested on: MDA-MB-231; assay: Induction of apoptosis in human MDA-MB-231 cells assessed as formation of apoptotic bodies at 6.65 uM (IC50) measured after 72 hrs by fluorescence microscopic analysis; assay type: functional, cell-based
[7] = tested on: MDA-MB-231; assay: Induction of apoptosis in human MDA-MB-231 cells assessed as late apoptotic cells at 6.56 uM incubated for 72 hrs by Annexin/FITC based FACS analysis (reference value: 3%); assay type: functional
[8] = tested on: MDA-MB-231; assay: Induction of apoptosis in human MDA-MB-231 cells assessed as increase in TUNEL positive nuclei at 6.56 uM by TUNEL assay relative to control; assay type: functional, cell-based
[9] = tested on: MDA-MB-231; assay: Induction of cell cycle arrest in human MDA-MB-231 cells assessed as increase in accumulation of cells at G2/M phase at 6.65 uM incubated for 72 hrs by PI staining based FACS analysis relative to control; assay type: functional
[10] = tested on: MDA-MB-231; assay: Induction of cell cycle arrest in human MDA-MB-231 cells assessed as accumulation of hypodiploid cells at sub-G1 phase at 6.65 uM IC50 incubated for 72 hrs by FACS analysis; assay type: functional, cell-based
[11] = tested on: Mitochondrial membrane; assay: Induction of mitochondrial membrane potential loss in human MDA-MB-231 cells assessed as decrease in red fluorescence incubated for 48 hrs by JC-1 staining based fluorescence microscopic analysis; assay type: cell membranes
[12] = tested on: Mitochondrial membrane; assay: Induction of mitochondrial membrane potential loss in human MDA-MB-231 cells assessed as increase in green fluorescence incubated for 48 hrs by rhodamine-123 staining based fluorescence microscopic analysis; assay type: cell membranes
[13] = Toxicity in BALB/c athymic mouse xenografted with human MCF-7 cells assessed as change in body weight at 150 mg/kg, po administrated daily for 30 days; assay type: organism-based; conditions: in vivo, 720 h, time 30 day
[14] = Toxicity in BALB/c athymic mouse assessed as effect on hepatic lobules morphology at 150 mg/kg, po by Hematoxylin and eosin staining based analysis; assay type: organism-based; conditions: in vivo
[15] = Toxicity in BALB/c athymic mouse assessed as effect on interstitium morphology at 150 mg/kg, po by Hematoxylin and eosin staining based analysis; assay type: organism-based; conditions: in vivo
[16] = Toxicity in BALB/c athymic mouse assessed as effect on blood arteries morphology at 150 mg/kg, po by Hematoxylin and eosin staining based analysis; assay type: organism-based; conditions: in vivo
[17] = Toxicity in BALB/c athymic mouse assessed as effect on cerebral cortex morphology at 150 mg/kg mg/kg, po by Hematoxylin and eosin staining based analysis; assay type: organism-based; conditions: in vivo
[18] = Toxicity in BALB/c athymic mouse assessed as effect on alveoli morphology at 150 mg/kg mg/kg, po by Hematoxylin and eosin staining based analysis; assay type: organism-based; conditions: in vivo
[19] = Toxicity in female BALB/c athymic mouse assessed as effect on bronchial morphology at 150 mg/kg, po by Hematoxylin and eosin staining based analysis; assay type: organism-based; conditions: in vivo
[20] = Toxicity in female BALB/c athymic mouse assessed as AST level at 150 mg/kg/day, po (reference value: 105.92 +/- 6.41 U/L); assay type: organism-based; conditions: in vivo
[21] = Toxicity in female BALB/c athymic mouse assessed as creatinine level at 150 mg/kg/day, po (reference value: 0.690 +/- 0.05 mg/dl); assay type: organism-based; conditions: in vivo
[22] = Toxicity in female BALB/c athymic mouse assessed as BUN level at 150 mg/kg/day, po (reference value: 10.19 +/- 2.68 mg/dl); assay type: organism-based; conditions: in vivo
[23] = Toxicity in female BALB/c athymic mouse assessed as bilirubin total level at 150 mg/kg/day, po (reference value: 0.673 +/- 0.01 mg/dl); assay type: organism-based; conditions: in vivo
[24] = Toxicity in female BALB/c athymic mouse assessed as bilirubin direct level at 150 mg/kg/day, po (reference value: 0.298 +/- 0.07 mg/dl); assay type: organism-based; conditions: in vivo
[25] = Toxicity in female BALB/c athymic mouse assessed as bilirubin indirect level at 150 mg/kg/day, po (reference value: 3.05 +/- 0.32 mg/dl); assay type: organism-based; conditions: in vivo
[26] = Toxicity in female BALB/c athymic mouse assessed as total protein level at 150 mg/kg/day, po (reference value: 6.88 +/- 0.15 g/dl); assay type: organism-based; conditions: in vivo
[27] = Toxicity in female BALB/c athymic mouse assessed as monocyte count at 150 mg/kg/day, po (reference value: 0.39 +/- 0.03 %); assay type: organism-based; conditions: in vivo
[28] = Toxicity in female BALB/c athymic mouse assessed as eosinophil count at 150 mg/kg/day, po (reference value: 0.84 +/- 0.04 %); assay type: organism-based; conditions: in vivo
[29] = Toxicity in female BALB/c athymic mouse assessed as calcium level at 150 mg/kg/day, po (reference value: 8.73 +/- 0.10 mg/dl); assay type: organism-based; conditions: in vivo
[30] = Toxicity in female BALB/c athymic mouse assessed as sodium level at 150 mg/kg/day, po (reference value: 144.51 +/- 0.85 mEq/L); assay type: organism-based; conditions: in vivo
[31] = Toxicity in female BALB/c athymic mouse assessed as potassium level at 150 mg/kg/day, po (reference value: 3.30 +/- 0.83 mEq/L); assay type: organism-based; conditions: in vivo
[32] = Toxicity in female BALB/c athymic mouse assessed as Chlorine level at 150 mg/kg/day, po (reference value: 105.63 +/- 4.46 mEq/L); assay type: organism-based; conditions: in vivo
[33] = Toxicity in female BALB/c athymic mouse assessed as WBC count at 150 mg/kg/day, po (reference value: 4.50 +/- 2.20 10^3/uL); assay type: organism-based; conditions: in vivo
[34] = Toxicity in female BALB/c athymic mouse assessed as hemoglobin concentration at 150 mg/kg/day, po (reference value: 16.59 +/- 0.60 g/dl); assay type: organism-based; conditions: in vivo
[35] = Toxicity in female BALB/c athymic mouse assessed as mean corpuscular volume at 150 mg/kg/day, po (reference value: 53.06 +/- 0.06 fL); assay type: organism-based; conditions: in vivo
[36] = Toxicity in female BALB/c athymic mouse assessed as mean corpuscular hemoglobin concentration at 150 mg/kg/day, po (reference value: 35.86 +/- 0.24 g/dl); assay type: organism-based; conditions: in vivo
[37] = Toxicity in female BALB/c athymic mouse assessed as platelet at 150 mg/kg/day, po (reference value: 95.11 +/- 7.23 10^3/uL); assay type: organism-based; conditions: in vivo

COc1ccc2c(c1OC)C(=O)O[C@@H]2[C@H]1c2c(c(NC(=O)Nc3ccc(Cl)cc3Cl)c3c(c2OC)OCO3)CCN1C
Activity [1]: Dose-dependent-effect
IC50 [2]: 4.77 µM
IC50 [3]: 6.56 µM
inhibition [4]: Dose-dependent-effect
Activity [5]: Active
Activity [6]: Active
Activity [7]: 68%
Activity [8]: Active
Activity [9]: Active
Activity [10]: Active
Activity [11]: Active
Activity [12]: Active
Activity [13]: Non-toxic
Activity [14]: Non-toxic
Activity [15]: Non-toxic
Activity [16]: Non-toxic
Activity [17]: Non-toxic
Activity [18]: Non-toxic
Activity [19]: Non-toxic
Activity [20]: 106.86 U/L
Activity [21]: 0.702 mg/dL
Activity [22]: 12.11 mg/dL
Activity [23]: 0.56 mg/dL
Activity [24]: 0.32 mg/dL
Activity [25]: 3.08 mg/dL
Activity [26]: 6.56 g/dL
Activity [27]: 0.48%
Activity [28]: 0.9%
Activity [29]: 7.9 mg/dL
Activity [30]: 144.4 mEq/L
Activity [31]: 3.3 mEq/L
Activity [32]: 106.71 mEq/L
Activity [33]: 4.59 10^3 /uL
Activity [34]: 14.6 g/dL
Activity [35]: 58.1 fL
Activity [36]: 34.74 g/dL
Activity [37]: 89.07 10^3 /uL

From ChEMBL document CHEMBL6120986, “In silico inspired design of urea noscapine congeners as anticancer agents: Chemical synthesis and experimental evaluation using breast cancer cells and a xenograft mouse model” (Eur J Med Chem, 2025)
